Peptide text beside a SMILES is read from it.
Assays:
[1] = test system: K. pneumoniae (ATCC 43816); assay type: cell-based, Klebsiella pneumoniae; conditions: for MIC: MHB, 5 × 10^5 CFU/mL, overnight; for MBC: clear wells spotted onto MHA
Procedure: (§1) The antimicrobial efficacy screening of the purified peptides was performed by MIC/MBC experiments on the following six different bacteria and an opportunistic pathogenic yeast: E. coli (ATCC 8739), Klebsiella pneumoniae (K. pneumoniae) (ATCC 43816), Pseudomonas aeruginosa (P. aeruginosa) (ATCC 9027), Staphylococcus aureus (S. aureus) (ATCC 6538), methicillin-resistant Staphylococcus aureus (MRSA) (NCTC 12493), Enterococcus faecium (E. faecium) (NCTC 12697), and Candida albicans (C. albicans) (ATCC 10231). First, frozen beads of respective cultures were inoculated into Mueller Hinton broth (MHB) medium and incubated overnight at 37 °C. Next, 500 µL of respective suspensions were added to the fresh MHB medium for incubation, and then sub-cultured until reaching the log growth phase, which was determined by measuring the absorbance of cultures at a wavelength of 550 nm. Then, the subcultures were diluted to 5 × 10^5 CFU/mL and 99 µL of suspension was removed and mixed with 1 µL of peptide solution at different concentrations (double-dilution of 12,800 to 100 µM) in a 96-well plate. The blank control, vehicle control, growth control, and the positive control groups were prepared according to the conditions mentioned previously. The peptide solutions were added to the plate and mixed with the diluted microbial suspensions. After overnight incubation, the absorbance at 550 nm of each well was measured with a Synergy HT plate reader (Biotech, Minneapolis, MN, USA). Subsequently, the samples in each clear well were spotted onto Mueller Hinton agar (MHA) plates for the MBC assays of the tested peptides.

[2] = test system: PC-3 human prostate cancer cells; test: MTT cell antiproliferation assay; assay type: cell-based; conditions: PC-3, MTT, 24 h of treatment, serum free medium, 10^−9–10^−4 M
Procedure: (§2) The antiproliferative activities of the synthesized peptides were assessed on six human cancer cell lines (PC-3, H157, H460, H838, MCF-7, U251MG) and two human normal cell lines (HMEC-1 and MRC-5) using the MTT cell viability assay. Human lung cancer cells (H838, H157, and H460) and human prostate cancer cells (PC-3) were cultured in complete growth medium (CGM) (Roswell Park Memorial Institute (RPMI) 1640 Medium (Gibco, Paisley, UK): Fetal bovine serum (FBS) (Gibco, Campinas, Brazil): Penicillin-streptomycin solution (PS) (Gibco, Grand Island, NY, USA) 89/10/1 v/v/v). Human glioblastoma astrocytoma (U251MG) and human breast cancer cell (MCF-7) were cultured in complete growth medium (Dulbecco’s Modified Eagle medium (DMEM) (Gibco, Paisley, UK): FBS: PS 89/10/1 v/v/v). Human microvascular endothelial cells (HMEC-1) and human pulmonary fibroblast cells (MRC-5) were cultured in MCDB131 medium (supplemented with 10% FBS, 1% PS, 10 ng/mL epidermal growth factor, 1 µg/mL hydrocortisone, and 10 mM glutamine) and Eagle’s Minimal Essential Medium (EMEM) (supplemented with 10% FBS and 1% PS), respectively. Cell suspension, containing 8 × 10^3 cells per 100 µL, was first added to 96-well plates for overnight incubation. Then, the adherent cells in the 96-well plates were subject to cell starvation using the serum free medium treatment for at least 4 h to ensure that the cells were all in the same growth cycle. The peptide solutions, with final concentrations of 10^−9–10^−4 M, were prepared with serum free medium and added onto the plate. In addition, Triton X-100 (0.1%) (Sigma-Aldrich, St. Louis, MO, USA) was used as a positive control. After 24 h of administration, the MTT solution was added to the plate and incubated for 2 h. Then, the supernatant was discarded and DMSO was added to dissolve the purple formazan crystals. The absorbance was measured in all wells using the Synergy HT plate reader at a wavelength of 570 nm.

[3] = test system: H157 human lung cancer cells; test: MTT cell antiproliferation assay; assay type: cell-based; conditions: 24 h of treatment, serum free medium, 10^−9–10^−4 M
Procedure: as §2

[4] = test system: H838 human lung cancer cells; test: MTT cell antiproliferation assay; assay type: cell-based; conditions: 24 h of treatment, serum free medium, 10^−9–10^−4 M
Procedure: as §2

[5] = test system: H460 human lung cancer cells; test: MTT cell antiproliferation assay; assay type: cell-based; conditions: 24 h of treatment, serum free medium, 10^−9–10^−4 M
Procedure: as §2

[6] = test system: MRC-5 human pulmonary fibroblast cells; test: MTT cell antiproliferation assay; assay type: cell-based; conditions: MRC-5 normal cells, 24 h of treatment, 10^−9–10^−4 M
Procedure: as §2

[7] = test system: HMEC-1 human microvascular endothelial cells; test: MTT cell antiproliferation assay; assay type: cell-based; conditions: HMEC-1 normal cells, 24 h of treatment, 10^−9–10^−4 M
Procedure: as §2

E. faecalis (NCTC 12697) = assay type: cell-based; conditions: for MIC: MHB, 5 × 10^5 CFU/mL, overnight; for MBC: clear wells spotted onto MHA
Procedure: as §1

E. coli biofilm = test: Antibiofilm assays (MBIC/MBEC, crystal violet); assay type: cell-based, Escherichia coli; conditions: for Effect on existing biofilms (MBEC): E. coli pre-formed biofilm, 24 h, highest experimental concentration 128 µM; for Concentration inhibiting biofilm formation (MBIC): E. coli, LB + 1% glucose, overnight 37 °C, crystal violet 595 nm, tested 1 to 128 µM
Procedure: To explore the ability of peptides to inhibit and eradicate the biofilm of E. coli, the minimum biofilm inhibition concentrations (MBICs) and minimum biofilm eradication concentrations (MBECs) were tested, respectively. Luria-Bertani broth (LB) medium containing 1% glucose was used to culture E. coli. The subcultured bacteria were diluted to 5 × 10^5 CFU/mL and 99 µL of this bacterial suspension was used to mix with 1 µL of peptide solution at different concentrations (double-dilution of 12,800 to 100 µM) in a 96-well plate. After overnight culture in an oscillating incubator at 37 °C and 220 rpm, the formed biofilm was washed twice with 100 µL PBS, then fixed in methanol. Next, biofilm formation was evaluated by 0.1% crystal violet staining. After dyeing for 15 min, the excess crystal violet was washed off and 30% glacial acetic acid was added to each well of a 96-well plate after drying. Then, the plate was shaken for 15 min, and the absorbance was measured at 595 nm using the Synergy HT plate reader. For the determination of MBEC, after the biofilm was formed, it was first washed twice with PBS, then the fresh medium and different concentrations of peptide (similar to MBIC experiments) were added and incubated at 37 °C at 220 rpm. The absorbance measurement was the same as previously described after 24 h of MBIC.

[8] = test system: MCF-7 human breast cancer cells; test: MTT cell antiproliferation assay; assay type: cell-based; conditions: MCF-7, MTT, 24 h of treatment, serum free medium, 10^−9–10^−4 M
Procedure: as §2

[9] = test system: U251MG human glioblastoma cells; test: MTT cell antiproliferation assay; assay type: cell-based; conditions: 24 h of treatment, serum free medium, 10^−9–10^−4 M
Procedure: as §2

Row | Structure (SMILES) | MIC [1] [µM] | MBC [1] [µM] | IC50 [2] [µM] | IC50 [3] [µM] | IC50 [4] [µM] | IC50 [5] [µM] | IC50 [6] [µM] | IC50 [7] [µM] | MIC (E. faecalis (NCTC 12697)) [µM] | MBC (E. faecalis (NCTC 12697)) [µM] | Effect on existing biofilms (MBEC) (E. coli biofilm) [µM] | Concentration inhibiting biofilm formation (MBIC) (E. coli biofilm) [µM] | IC50 [8] [µM] | IC50 [9] [µM]
1 | CC(C)C[C@H](NC(=O)[C@H](CCCCN)NC(=O)[C@H](C)NC(=O)[C@H](C)NC(=O)CNC(=O)CNC(=O)[C@H](CCCNC(=N)N)NC(=O)[C@H](CCCNC(=N)N)NC(=O)[C@H](CCCNC(=N)N)NC(=O)[C@H](CCC(N)=O)NC(=O)[C@H](CCCNC(=N)N)NC(=O)[C@H](CCCNC(=N)N)NC(=O)[C@H](CCCCN)NC(=O)[C@H](CCCCN)NC(=O)[C@@H](N)CCCNC(=N)N)C(=O)N1CCC[C@H]1C(=O)N[C@@H](Cc1ccccc1)C(=O)N[C@@H](CCCNC(=N)N)C(=O)N[C@H]1CSSC[C@@H](C(=O)O)NC(=O)[C@H](Cc2ccccc2)NC(=O)[C@H](C)NC(=O)[C@H](C)NC(=O)[C@H](CCCCN)NC1=O [TAT-KOV2] (HELM PEPTIDE1{R.K.K.R.R.Q.R.R.R.G.G.A.A.K.L.P.F.R.C.K.A.A.F.C}$PEPTIDE1,PEPTIDE1,19:R3-24:R3$$$V2.0) | >128 | >128 | 96.8 | 45.8 | 92.4 | 49.2 | 64.9 | 166 | 128 | > 128 | > 128 | 8 | – | –
2 | CC(C)C[C@H](NC(=O)[C@H](CCCCN)NC(=O)[C@H](C)NC(=O)[C@H](C)N)C(=O)N1CCC[C@H]1C(=O)N[C@@H](Cc1ccccc1)C(=O)N[C@@H](CCCNC(=N)N)C(=O)N[C@H]1CSSC[C@@H](C(=O)O)NC(=O)[C@H](Cc2ccccc2)NC(=O)[C@H](C)NC(=O)[C@H](C)NC(=O)[C@H](Cc2ccccc2)NC1=O [F9-KOV2] (HELM PEPTIDE1{A.A.K.L.P.F.R.C.F.A.A.F.C}$PEPTIDE1,PEPTIDE1,8:R3-13:R3$$$V2.0) | >128 | >128 | – | – | – | – | – | – | >128 | >128 | – | > 128 | – | –
3 | CC(C)C[C@H](NC(=O)[C@H](CCCCN)NC(=O)[C@H](C)NC(=O)[C@H](C)NC(=O)CNC(=O)CNC(=O)[C@H](CCCNC(=N)N)NC(=O)[C@H](CCCNC(=N)N)NC(=O)[C@H](CCCNC(=N)N)NC(=O)[C@H](CCC(N)=O)NC(=O)[C@H](CCCNC(=N)N)NC(=O)[C@H](CCCNC(=N)N)NC(=O)[C@H](CCCCN)NC(=O)[C@H](CCCCN)NC(=O)[C@@H](N)CCCNC(=N)N)C(=O)N1CCC[C@H]1C(=O)N[C@@H](Cc1ccccc1)C(=O)N[C@@H](CCCNC(=N)N)C(=O)N[C@H]1CSSC[C@@H](C(=O)O)NC(=O)[C@H](Cc2ccccc2)NC(=O)[C@H](C)NC(=O)[C@H](C)NC(=O)[C@H](Cc2ccccc2)NC1=O [TAT-F9-KOV2] (HELM PEPTIDE1{R.K.K.R.R.Q.R.R.R.G.G.A.A.K.L.P.F.R.C.F.A.A.F.C}$PEPTIDE1,PEPTIDE1,19:R3-24:R3$$$V2.0) | >128 | >128 | 44.3 | 2.2 | 9.9 | 5.1 | 43.6 | 98.1 | >128 | >128 | > 128 | 16 | 11.7 | 7.6
4 | CC(C)C[C@H](NC(=O)[C@H](CCCCN)NC(=O)[C@H](C)NC(=O)[C@H](C)N)C(=O)N1CCC[C@H]1C(=O)N[C@@H](Cc1ccccc1)C(=O)N[C@@H](CCCNC(=N)N)C(=O)N[C@H]1CSSC[C@@H](C(=O)O)NC(=O)[C@H](Cc2ccccc2)NC(=O)[C@H](C)NC(=O)[C@H](C)NC(=O)[C@H](CCCCN)NC1=O [Kunitzin-OV2] (HELM PEPTIDE1{A.A.K.L.P.F.R.C.K.A.A.F.C}$PEPTIDE1,PEPTIDE1,8:R3-13:R3$$$V2.0) | >128 | >128 | – | – | – | – | – | – | >128 | >128 | – | > 128 | – | –

— article PMC9501525, “Conjugation of a Cationic Cell-Penetrating Peptide with a Novel Kunitzin-like Trypsin Inhibitor: New Insights for Enhancement of Peptide Bioactivities” (Pharmaceutics, 2022)
